Measured values: patent US8697694B2, “Substituted pyridine and pyrimidine derivatives and their use in treating viral infections” (priority 2008, dated 2014)

system: HCV replicon cells; assay: Cell-based HCV replicon assay (replicon RNA level by real time PCR, Taqman); conditions: Hepatitis C virus, 72 h, HCV replicon cells, harvested day 3, replicon RNA by real time PCR; given as number; read-out: EC90 (μM) range
In short: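 HCV replicon cells treated 3 days with 10 serial 2-fold compound dilutions (top 25 μM to 1 μM; 0.5% DMSO, 10% FBS). Replicon RNA quantified by multiplex Taqman RT-PCR (NS5B amplicon, GAPDH control); EC50 and EC90 = concentrations giving ΔCT of 1 and 3.2 over baseline.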

Compound	EC90 [µM]
Cc1nc(NCC2CC2)nc(N[C@@H]2C[C@H](CO)[C@@H](O)[C@H]2O)c1-c1cc2cc(OCC(C)(C)C)nc(C)c2o1 [Example 45]	> 25
Cc1nc(NCCCF)nc(N[C@@H]2C[C@H](CO)[C@@H](O)[C@H]2O)c1-c1nc2ccccc2s1 [Example 127]	0.7
CCOc1cc2cc(-c3c(C)nc(NC(C)C)nc3N[C@@H]3C[C@H](CO)[C@@H](O)[C@H]3O)oc2c(C)n1 [Example 32]	0.95
CCC(CC)Oc1cc2cc(-c3c(C)nc(NCC4CC4)nc3N[C@@H]3C[C@H](CO)[C@@H](O)[C@H]3O)oc2c(C)n1 [Example 44]	> 25

same assay, conditions: Hepatitis C virus, 72 h, HCV replicon cells, harvested day 3, replicon RNA by real time PCR; reported as range class; read-out: EC90 (μM) range

Compound	EC90 [µM]
CC(=O)c1ccc(-c2c(Cl)nc(N)nc2N[C@@H]2C[C@H](CO)[C@@H](O)[C@H]2O)s1 [Example 154]	> 5
COC[C@H]1C[C@@H](Nc2nc(N(C)C)nc(Cl)c2-c2nc3ccccc3s2)[C@H](O)[C@@H]1O [Example 121]	< 0.5
OC[C@H]1C[C@@H](Nc2nc(NCCF)nc(Cl)c2-c2nc3ccccc3s2)[C@H](O)[C@@H]1O [Example 213]	< 0.5
CC1(C)O[C@@H]2[C@@H](CO)C[C@@H](Nc3nc(N)nc(Cl)c3-c3nc4ccccc4s3)[C@@H]2O1 [Example 184]	< 0.5
OC[C@H]1C[C@@H](Nc2ncnc(Cl)c2-c2nc3ccccc3s2)[C@H](O)[C@@H]1O [Example 118]	> 5
CCOc1ccc2nc(-c3c(Cl)nc(N)nc3N[C@@H]3C[C@H](CO)[C@@H](O)[C@H]3O)sc2c1 [Example 182]	< 0.5
CN(C)c1ccc2sc(-c3c(Cl)nc(N)nc3N[C@@H]3C[C@H](CO)[C@@H](O)[C@H]3O)nc2c1 [Example 200]	< 0.5
Nc1nc(Cl)c(-c2ncco2)c(N[C@@H]2C[C@H](CO)[C@@H](O)[C@H]2O)n1 [Example 106]	> 5
Cc1nc(NCC2CC2)nc(N[C@@H]2C[C@H](CO)[C@@H](O)[C@H]2O)c1-c1cc2cc(-c3cccs3)nc(C)c2o1 [Example 43]	> 5
NC(=O)c1ccc2cc(-c3c(Cl)nc(N)nc3N[C@@H]3C[C@H](CO)[C@@H](O)[C@H]3O)oc2c1 [Example 178]	> 5

same assay, conditions: Hepatitis C virus, 72 h, HCV replicon cells, harvested on day 3, replicon RNA by real time PCR; calculated EC90 reported as range class; read-out: EC90 (μM) range

Compound	EC90 [µM]
Cc1nc(NCC2CCCO2)nc(N[C@@H]2C[C@H](CO)[C@@H](O)[C@H]2O)c1-c1nc2ccccc2s1 (some centres unmarked) [Example 325]	< 0.5
CCCCCNc1nc(C)c(-c2nc3ccccc3s2)c(N[C@@H]2C[C@H](CO)[C@@H](O)[C@H]2O)n1 [Example 435]	< 0.5
OC[C@H]1C[C@@H](Nc2nc(NCC3CCOCC3)nc(Cl)c2-c2nc3ccccc3s2)[C@H](O)[C@@H]1O [Example 447]	< 0.5
COC(C)(C)CNc1nc(C)c(-c2nc3ccccc3s2)c(N[C@@H]2C[C@H](CO)[C@@H](O)[C@H]2O)n1 [Example 473]	< 0.5
Cc1nc(NCc2nccs2)nc(N[C@@H]2C[C@H](CO)[C@H]3OC(C)(C)O[C@H]32)c1-c1nc2ccccc2s1 [Example 472]	< 0.5
Cc1ccccc1CNc1nc(C)c(-c2nc3ccccc3s2)c(N[C@@H]2C[C@H](CO)[C@@H](O)[C@H]2O)n1 [Example 488]	< 0.5
Cc1nc(NCCN(C)C)nc(N[C@@H]2C[C@H](CO)[C@@H](O)[C@H]2O)c1-c1nc2ccccc2s1 [Example 246]	> 5
Cc1csc(CNc2nc(C)c(-c3nc4ccccc4s3)c(N[C@@H]3C[C@H](CO)[C@H]4OC(C)(C)O[C@H]43)n2)c1 [Example 477]	< 0.5
Cc1cc2cc(-c3c(C)nc(NCC(F)(F)F)nc3N[C@@H]3C[C@H](CO)[C@@H](O)[C@H]3O)oc2c(C)n1 [Example 457]	< 0.5
Cc1cc(CNc2nc(C)c(-c3nc4ccccc4s3)c(N[C@@H]3C[C@H](CO)[C@@H](O)[C@H]3O)n2)on1 [Example 493]	< 0.5
Cc1nc(NCc2ccccc2)nc(N[C@@H]2C[C@H](CO)[C@@H](O)[C@H]2O)c1-c1nc2ccccc2s1 [Example 431]	< 0.5
Cc1nc(NCC(F)(F)F)nc(N[C@@H]2C[C@H](CO)[C@@H](O)[C@H]2O)c1-c1cc2cc(C(F)(F)F)ncc2o1 [Example 142]	0.5 to 5
Cc1nc(NCC(C)(C)C)nc(N[C@@H]2C[C@H](CO)[C@@H](O)[C@H]2O)c1-c1nc2ccccc2s1 [Example 437]	< 0.5
Cc1nc(NCC2CCCCC2)nc(N[C@@H]2C[C@H](CO)[C@@H](O)[C@H]2O)c1-c1nc2ccccc2s1 [Example 323]	< 0.5
Cc1nc(NCc2cccs2)nc(N[C@@H]2C[C@H](C)[C@@H](O)[C@H]2O)c1-c1nc2ccccc2s1 [Example 337]	< 0.5
OC[C@H]1C[C@@H](Nc2nc(NCC3CCCCC3)nc(Cl)c2-c2nc3ccccc3s2)[C@H](O)[C@@H]1O [Example 322]	< 0.5
CCC(C)(C)Nc1nc(C)c(-c2nc3ccccc3s2)c(N[C@@H]2C[C@H](CO)[C@@H](O)[C@H]2O)n1 [Example 513]	< 0.5
COc1cc(CNc2nc(C)c(-c3nc4ccccc4s3)c(N[C@@H]3C[C@H](CO)[C@@H](O)[C@H]3O)n2)cc(OC)c1 [Example 701]	< 0.5
CCOC(=O)NCCNc1nc(C)c(-c2nc3ccccc3s2)c(N[C@@H]2C[C@H](CO)[C@@H](O)[C@H]2O)n1 [Example 256]	< 0.5
Cc1cccc(CNc2nc(C)c(-c3nc4ccccc4s3)c(N[C@@H]3C[C@H](CO)[C@H]4OC(C)(C)O[C@H]43)n2)c1 [Example 485]	0.5 to 5
COCCNc1nc(C)c(-c2cc3cc(C(F)(F)F)ncc3o2)c(N[C@@H]2C[C@H](CO)[C@H]3OC(C)(C)O[C@H]32)n1 [Example 135]	> 5

same assay, conditions: Hepatitis C virus, 72 h, HCV replicon cells, replicon RNA level by real time PCR (Taqman), harvested on day 3; calculated EC90 reported as range class; read-out: EC90 (μM) range

Compound	EC90 [µM]
Cc1nc(NCC(C)(C)CC2CC2)nc(N[C@@H]2C[C@H](CO)[C@@H](O)[C@H]2O)c1-c1nc2cnccc2s1 [Example 1318]	< 0.5
Cc1nc(Nc2cccc(OC(F)(F)F)c2)nc(N[C@@H]2C[C@H](CO)[C@@H](O)[C@H]2O)c1-c1nc2ccccc2s1 [Example 1237]	> 5
Cc1nc(NC(C)c2ccco2)nc(N[C@@H]2C[C@H](CO)[C@@H](O)[C@H]2O)c1-c1nc2ccccc2s1 (some centres unmarked) [Example 1102]	0.5 to 5
COc1ccc2sc(-c3c(C)nc(NCC(F)(F)F)nc3N[C@@H]3C[C@H](CO)[C@@H](O)[C@H]3O)nc2c1 [Example 1010]	0.5 to 5
Cc1nc(NCc2cccc(C(=O)O)c2)nc(N[C@@H]2C[C@H](CO)[C@@H](O)[C@H]2O)c1-c1nc2ccccc2s1 [Example 1219]	> 5
Cc1nc(Nc2nccs2)nc(N[C@@H]2C[C@H](CO)[C@@H](O)[C@H]2O)c1-c1nc2ccccc2s1 [Example 1013]	0.5 to 5
CCOCCNc1nc(C)c(-c2nc3cc(OC)ccc3s2)c(N[C@@H]2C[C@H](CO)[C@@H](O)[C@H]2O)n1 [Example 1008]	0.5 to 5
CCNC[C@H]1C[C@@H](Nc2nc(NCC(F)(F)F)nc(C)c2-c2nc3ccccc3s2)[C@H](O)[C@@H]1O [Example 1018]	0.5 to 5
CCOCCNc1nc(C)c(-c2nc3c(C)nccc3s2)c(N[C@@H]2C[C@H](CO)[C@@H](O)[C@H]2O)n1 [Example 535]	< 0.5
CCOCCNc1nc(C)c(-c2nc3ccccc3n2C)c(N[C@@H]2C[C@H](CO)[C@@H](O)[C@H]2O)n1 [Example 531]	> 5
CCc1nccc2sc(-c3c(C)nc(NCC4CC4)nc3N[C@@H]3C[C@H](CO)[C@@H](O)[C@H]3O)nc12 [Example 1333]	< 0.5
Cc1cc(CNc2nc(C)c(-c3nc4cnccc4s3)c(N[C@@H]3C[C@H](CO)[C@@H](O)[C@H]3O)n2)on1 [Example 538]	< 0.5
Cc1nc(Nc2cccc(F)c2)nc(N[C@@H]2C[C@H](CO)[C@@H](O)[C@H]2O)c1-c1nc2cnccc2s1 [Example 1056]	< 0.5

same assay, conditions: Hepatitis C virus, 72 h, HCV replicon cells, replicon RNA level by real time PCR, harvested day 3; read-out: EC90 (μM) range

Compound	EC90 [µM]
Cc1nc(NCC(F)(F)F)nc(N[C@@H]2C[C@H](C(C)(C)O)[C@@H](O)[C@H]2O)c1-c1nc2ccccc2s1 [Example 1640]	0.5 to 5
Cc1nc(N[C@H](C)C2CC2)nc(N[C@@H]2C[C@H](CO)[C@@H](O)[C@H]2O)c1-c1nc2c(CC(C)C)nccc2s1 [Example 1373]	< 0.5
Cc1nc(NCC(F)(F)F)nc(N[C@@H]2C[C@H](C(O)c3ncc[nH]3)[C@@H](O)[C@H]2O)c1-c1nc2ccccc2s1 (some centres unmarked) [Example 1654]	0.5 to 5
Cc1nc(N[C@H](C)c2ccc(OC(F)(F)F)cc2)nc(N[C@@H]2C[C@H](C(C)O)[C@@H](O)[C@H]2O)c1-c1nc2c(C)nccc2s1 (some centres unmarked) [Example 1399]	< 0.5
Cc1nc(NCC2CC2)nc(N[C@@H]2C[C@H](CO)[C@@H](O)[C@H]2O)c1-c1nc2c(OCC3CC3)nccc2s1 [Example 1338]	< 0.5
Cc1ccc([C@@H](C)Nc2nc(C)c(-c3nc4cnccc4s3)c(N[C@@H]3C[C@H](CO)[C@@H](O)[C@@]3(C)O)n2)cc1 [Example 1708]	< 0.5
Cc1nc(NCC(F)(F)F)nc(N[C@@H]2C[C@H](CN(CC3CC3)S(C)(=O)=O)[C@@H](O)[C@H]2O)c1-c1nc2ccccc2s1 [Example 1395]	< 0.5
Cc1nc(C#N)nc(N[C@@H]2C[C@H](CO)[C@@H](O)[C@H]2O)c1-c1nc2ccccc2s1 [Example 1904]	> 5
CCCc1nccc2sc(-c3c(C)nc(N[C@H](C)C4CC4)nc3N[C@@H]3C[C@H](CNC(=O)OC)[C@@H](O)[C@H]3O)nc12 [Example 1388]	< 0.5
CCOc1nccc2sc(-c3c(C)nc(N[C@H](C)c4ccc(C)cc4)nc3N[C@@H]3C[C@H](CO)[C@@H](O)[C@H]3O)nc12 [Example 1343]	< 0.5
CC[C@@H](Nc1nc(C)c(-c2nc3c(C)nccc3s2)c(N[C@@H]2C[C@H](CO)[C@@H](O)[C@H]2O)n1)c1ccc(C)cc1 [Example 1363]	< 0.5
